Source: US20210395239A1 (Hoffmann-La Roche Inc., priority 2018, published 2021)

The compounds below were run against T1, human TLR7 (Homo sapiens, UniProt Q9NYK1) (assay: HEK293-Blue-hTLR-7 cells assay (SEAP reporter, R848 stimulation)). Conditions: HEK293-Blue-hTLR7 cells, R848, 20 hrs; read-out: HEK/hTLR7 IC50.
T1 construct: host or cells: HEK293 (HEK-Blue hTLR7)
T1 sequence (Q9NYK1 27-1049): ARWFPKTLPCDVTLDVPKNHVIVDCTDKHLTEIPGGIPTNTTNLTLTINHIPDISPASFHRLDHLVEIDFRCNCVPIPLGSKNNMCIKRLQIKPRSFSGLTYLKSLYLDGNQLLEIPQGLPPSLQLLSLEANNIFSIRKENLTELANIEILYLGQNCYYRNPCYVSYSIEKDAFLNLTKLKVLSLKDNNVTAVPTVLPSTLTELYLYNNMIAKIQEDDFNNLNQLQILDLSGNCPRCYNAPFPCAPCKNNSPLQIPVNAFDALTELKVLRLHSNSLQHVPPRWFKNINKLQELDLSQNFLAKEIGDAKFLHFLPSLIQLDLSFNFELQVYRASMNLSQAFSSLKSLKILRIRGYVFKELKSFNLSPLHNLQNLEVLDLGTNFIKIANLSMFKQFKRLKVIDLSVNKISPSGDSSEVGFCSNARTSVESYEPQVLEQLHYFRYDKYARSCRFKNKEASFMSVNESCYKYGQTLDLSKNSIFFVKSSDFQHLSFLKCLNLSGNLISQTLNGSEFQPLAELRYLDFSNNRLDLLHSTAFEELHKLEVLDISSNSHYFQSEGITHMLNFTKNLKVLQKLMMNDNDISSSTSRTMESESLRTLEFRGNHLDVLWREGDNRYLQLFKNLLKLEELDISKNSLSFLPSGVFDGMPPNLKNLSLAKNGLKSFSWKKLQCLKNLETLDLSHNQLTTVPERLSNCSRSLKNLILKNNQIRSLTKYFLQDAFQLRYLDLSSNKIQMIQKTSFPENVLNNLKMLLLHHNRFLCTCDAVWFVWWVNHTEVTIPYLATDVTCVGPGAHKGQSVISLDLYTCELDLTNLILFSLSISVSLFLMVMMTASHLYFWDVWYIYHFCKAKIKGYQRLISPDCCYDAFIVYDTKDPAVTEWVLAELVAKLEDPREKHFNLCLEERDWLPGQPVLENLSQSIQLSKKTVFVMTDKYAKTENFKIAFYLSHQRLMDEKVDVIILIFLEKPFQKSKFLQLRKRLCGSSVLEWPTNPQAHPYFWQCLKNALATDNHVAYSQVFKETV
Format: cell-based
Outline: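 HEK293-Blue-hTLR7 cells (NF-κB/AP-1-driven SEAP reporter) were stimulated with R848 alongside serially diluted compound at 1% final DMSO for 20 h at 37 °C. Supernatant SEAP was then developed with QUANTI-Blue for 2 h at 37 °C and absorbance read at 620–655 nm; antagonism is measured as reduced reporter signal.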

| SMILES | IC50 |
| --- | --- |
| CO[C@@H]1CN(c2cc(C)nc(N3CCN(C[C@H]4CN(c5ccc(C#N)c6nccnc56)C[C@@H](C)O4)CC3)n2)C[C@@H]1N [Example 120, 8-[(2S,6R)-2-[[4-[4-[(3S,4R)-3-amino-4-methoxy-pyrrolidin-1-yl]-6-methyl-pyrimidin-2-yl]piperazin-1-yl]methyl]-6-methyl-morpholin-4-yl]quinoxaline-5-carbonitrile] | 5 nM |
| Cc1cc(N2CC(C)(N)C2)cnc1N1CCN(C[C@H]2CN(c3ccc(C#N)n4ncc(F)c34)C[C@@H](C)O2)CC1 [Example 148, 4-[(2S,6R)-2-[[4-[5-(3-amino-3-methyl-azetidin-1-yl)-3-methyl-2-pyridyl]piperazin-1-yl]methyl]-6-methyl-morpholin-4-yl]-3-fluoro-pyrazolo[1,5-a]pyridine-7-carbonitrile] | 56 nM |
| C[C@@H]1CN(c2ccc(C#N)c3nccnc23)C[C@H](CN2CCN(c3ccnc(N4CC[C@H](N)[C@H](F)C4)n3)CC2)O1 [Example 111, 8-[(2S,6R)-2-[[4-[2-[(3R,4S)-4-amino-3-fluoro-1-piperidyl]pyrimidin-4-yl]piperazin-1-yl]methyl]-6-methyl-morpholin-4-yl]quinoxaline-5-carbonitrile] | 3 nM |
| [2H]c1ccc2c(N3C[C@H](CN4CCN(c5ccc(N6C[C@@H]7C[C@H]6CN7)nc5)CC4)O[C@H](C)C3)ccc(C#N)c2n1 [Example 151, 2-deuterio-5-[(2S,6R)-2-[[4-[6-[(1S,4S)-2,5-diazabicyclo[2.2.1]heptan-2-yl]-3-pyridyl]piperazin-1-yl]methyl]-6-methyl-morpholin-4-yl]quinoline-8-carbonitrile] | 35 nM |
| [2H]c1ccc2c(N3C[C@H](CN4CCN(c5cnc(N6CC(C)(N)C6)cc5C)CC4)O[C@H](C)C3)ccc(C#N)c2n1 [Example 133, 5-[(2S,6R)-2-[[4-[6-(3-amino-3-methyl-azetidin-1-yl)-4-methyl-3-pyridyl]piperazin-1-yl]methyl]-6-methyl-morpholin-4-yl]-2-deuterio-quinoline-8-carbonitrile] | 41 nM |
| C[C@@H]1CN(c2ccc(C#N)c3ncccc23)C[C@H](CN2CCN(c3cnc(N4CCNCC4)cn3)CC2)O1 [Example 6, 5-[(2R,6S)-2-methyl-6-[[4-(5-piperazin-1-ylpyrazin-2-yl)piperazin-1-yl]methyl]morpholin-4-yl]quinoline-8-carbonitrile] | 51 nM |
| [2H]c1ccc2c(N3C[C@H](CN4CCN(c5ccc(N6CC(C)(N)C6)c(C)n5)CC4)O[C@H](C)C3)ccc(C#N)c2n1 [Example 147, 5-[(2S,6R)-2-[[4-[5-(3-amino-3-methyl-azetidin-1-yl)-6-methyl-2-pyridyl]piperazin-1-yl]methyl]-6-methyl-morpholin-4-yl]-2-deuterio-quinoline-8-carbonitrile] | 53 nM |
| COc1cc(N2CCN(C[C@H]3CN(c4ccc(C#N)c5ncccc45)C[C@@H](C)O3)CC2)nc(N2CCNCC2)n1 [Example 91, 5-[(2S,6R)-2-[[4-(6-methoxy-2-piperazin-1-yl-pyrimidin-4-yl)piperazin-1-yl]methyl]-6-methyl-morpholin-4-yl]quinoline-8-carbonitrile] | 13 nM |
| [2H]c1ccc2c(N3C[C@H](CN4CCN(c5nc(OC)cc(N6CC(C)(N)C6)n5)CC4)O[C@H](C)C3)ccc(C#N)c2n1 [Example 131, 5-[(2S,6R)-2-[[4-[4-(3-amino-3-methyl-azetidin-1-yl)-6-methoxy-pyrimidin-2-yl]piperazin-1-yl]methyl]-6-methyl-morpholin-4-yl]-2-deuterio-quinoline-8-carbonitrile] | 32 nM |
| CO[C@@H]1CN(c2cc(C)nc(N3CCN(C[C@H]4CN(c5ccc(C#N)c6nccnc56)C[C@@H](C)O4)CC3)n2)C[C@H]1N [Example 121, 8-[(2S,6R)-2-[[4-[4-[(3R,4R)-3-amino-4-methoxy-pyrrolidin-1-yl]-6-methyl-pyrimidin-2-yl]piperazin-1-yl]methyl]-6-methyl-morpholin-4-yl]quinoxaline-5-carbonitrile] | 8 nM |
| [2H]c1ccc2c(N3C[C@H](CN4CCN(c5cccc(N6CC(C)(N)C6)n5)CC4)O[C@H](C)C3)ccc(C#N)c2n1 [Example 155, 5-[(2S,6R)-2-[[4-[6-(3-amino-3-methyl-azetidin-1-yl)-2-pyridyl]piperazin-1-yl]methyl]-6-methyl-morpholin-4-yl]-2-deuterio-quinoline-8-carbonitrile] | 18 nM |
| CO[C@@H]1CN(c2nccc(N3CCN(C[C@H]4CN(c5ccc(C#N)c6nccnc56)C[C@@H](C)O4)CC3)n2)C[C@H]1N [Example 98, 8-[(2S,6R)-2-[[4-[2-[(3R,4R)-3-amino-4-methoxy-pyrrolidin-1-yl]pyrimidin-4-yl]piperazin-1-yl]methyl]-6-methyl-morpholin-4-yl]quinoxaline-5-carbonitrile] | 6 nM |
| [2H]c1ccc2c(N3C[C@H](CN4CC(c5ccc(N6C[C@H](OC)[C@@H](N)C6)cc5)C4)O[C@H](C)C3)ccc(C#N)c2n1 [Example 140, 5-[(2S,6R)-2-[[3-[4-[(3S,4S)-3-amino-4-methoxy-pyrrolidin-1-yl]phenyl]azetidin-1-yl]methyl]-6-methyl-morpholin-4-yl]-2-deuterio-quinoline-8-carbonitrile] | 22 nM |
| C[C@@H]1CN(c2ccc(C#N)c3ncccc23)C[C@H](CN2CCN(c3ccnc(N4C[C@H]5NCCO[C@@H]5C4)n3)CC2)O1 [Example 103, 5-[(2S,6R)-2-[[4-[2-[(4aR,7aR)-3,4,4a,5,7,7a-hexahydro-2H-pyrrolo[3,4-b][1,4]oxazin-6-yl]pyrimidin-4-yl]piperazin-1-yl]methyl]-6-methyl-morpholin-4-yl]quinoline-8-carbonitrile] | 10 nM |
| [2H]c1ccc2c(N3C[C@H](CN4CCN(c5nc(C)cc(N6C[C@@H](N)[C@H](OC)C6)n5)CC4)O[C@H](C)C3)ccc(C#N)c2n1 [Example 144, 5-[(2S,6R)-2-[[4-[4-[(3R,4R)-3-amino-4-methoxy-pyrrolidin-1-yl]-6-methyl-pyrimidin-2-yl]piperazin-1-yl]methyl]-6-methyl-morpholin-4-yl]-2-deuterio-quinoline-8-carbonitrile] | 11 nM |
| C[C@@H]1CN(c2ccc(C#N)c3nccnc23)C[C@H](CN2CCN(c3ccnc(N4C[C@@H](N)[C@@H](F)C4)n3)CC2)O1 [Example 108, 8-[(2S,6R)-2-[[4-[2-[(3R,4S)-3-amino-4-fluoro-pyrrolidin-1-yl]pyrimidin-4-yl]piperazin-1-yl]methyl]-6-methyl-morpholin-4-yl]quinoxaline-5-carbonitrile] | 5 nM |
| [2H]c1ccc2c(N3C[C@H](CN4CC(O)(c5ccc(N6CC(C)(N)C6)cc5)C4)O[C@H](C)C3)ccc(C#N)c2n1 [Example 156, 5-[(2S,6R)-2-[[3-[4-(3-amino-3-methyl-azetidin-1-yl)phenyl]-3-hydroxy-azetidin-1-yl]methyl]-6-methyl-morpholin-4-yl]-2-deuterio-quinoline-8-carbonitrile] | 21 nM |
| [2H]c1ccc2c(N3C[C@H](CN4CCN(c5ccc(N6CC(C)(N)C6)nc5C)CC4)O[C@H](C)C3)ccc(C#N)c2n1 [Example 137, 5-[(2S,6R)-2-[[4-[6-(3-amino-3-methyl-azetidin-1-yl)-2-methyl-3-pyridyl]piperazin-1-yl]methyl]-6-methyl-morpholin-4-yl]-2-deuterio-quinoline-8-carbonitrile] | 19 nM |
